# Assay results reported in patent US20240100112A1, “TRADITIONAL CHINESE MEDICINE OINTMENT FOR PREVENTING AND TREATING MASTITIS IN DAIRY COWS, AND PREPARATION METHOD THEREOF” (Hunan University of Science and Engineering, priority 2022, published 2024).
# System: mastitis in dairy cows
# Assay: Treatment of dairy cows with mastitis; cure judged by sodium hydroxide curdled milk test
# Assay type: in vivo
# Conditions: dairy cows with mastitis (SMT detected); ointment 2 g externally twice a day for 5 days, or penicillin 100,000 IU breast perfusion; tested one day after stopping
# Text: Fifty dairy cows with mastitis detected by Shanghai Mastitis Test (SMT) are selected from a dairy farm in Hunan Province, of which 20 cows are externally coated with the traditional Chinese medicine ointment for preventing and treating mastitis in dairy cows prepared in embodiment 1 and 20 cows are externally applied with the traditional Chinese medicine ointment for preventing and treating mastitis in dairy cows prepared in comparative example 1, with the dosage of 2 g each time, twice a day for 5 days. The remaining 10 cows are perfused with penicillin 100,000 IU after all the milk is discharged from their breasts, as a control group.
# Cure standard: one day after stopping the ointments, if curdled milk is negative by the sodium hydroxide test, the cows are judged to be cured.
compound,measurement,value
"CC1(C)S[C@@H]2[C@H](NC(=O)Cc3ccccc3)C(=O)N2[C@H]1C(=O)O [Control group, penicillin]",Cows (head) with curdled milk being negative by sodium hydroxide test,8 head
same,Cure rate (%),80%
